Measurements: publication PMC6152983, “An amine oxidase gene from mud crab, Scylla paramamosain, regulates the neurotransmitters serotonin and dopamine in vitro” (PLoS ONE, 2018)

Molecular target: T1, SpAMO (Scylla paramamosain, UniProt A0A3G2KVP6)
T1 sequence (A0A3G2KVP6 2-506): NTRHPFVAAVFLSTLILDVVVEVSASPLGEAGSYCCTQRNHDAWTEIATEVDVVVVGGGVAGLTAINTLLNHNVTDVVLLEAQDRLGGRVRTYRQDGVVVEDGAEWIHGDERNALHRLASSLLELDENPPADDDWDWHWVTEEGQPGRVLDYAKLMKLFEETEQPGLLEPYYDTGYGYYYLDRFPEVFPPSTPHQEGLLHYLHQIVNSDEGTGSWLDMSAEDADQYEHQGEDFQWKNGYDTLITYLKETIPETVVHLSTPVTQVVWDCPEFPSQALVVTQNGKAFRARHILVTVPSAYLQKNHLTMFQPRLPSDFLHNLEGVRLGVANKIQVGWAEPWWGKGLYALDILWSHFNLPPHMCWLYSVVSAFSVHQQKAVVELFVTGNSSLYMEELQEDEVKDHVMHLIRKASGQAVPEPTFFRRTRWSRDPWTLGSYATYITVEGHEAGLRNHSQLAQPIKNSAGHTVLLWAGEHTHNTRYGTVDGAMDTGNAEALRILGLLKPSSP
Test: luminol/horseradish peroxidase chemiluminescence of H2O2
Format: biochemical
Conditions: glycine buffer pH 8.0, 37 °C; 50 μL of 1.5 mmol/L substrate

NCCc1ccc(O)c(O)c1 [dopamine]
luminol/horseradish peroxidase chemiluminescence of H2O2: oxidative deamination of 5-HT and DA by SpAMO was significantly stronger
